Laboratory results published in patent publication US11286278B2, “DPEP-1 binding agents and methods of use” (Arch Biopartners, Inc., priority 2018, dated 2022).
Ends that are not written are not given here.

What was measured:
[1] = Circular dichroism spectroscopy of LSALT peptide and analogs; assay type: physicochemical; design: Inducible Helical Structure (50% TFE-benign): unit not given here
Experimental: The physical and chemical properties of protein therapeutics are critical factors that influence the ease of manufacturing, development and clinical use. The LSALT peptide was evaluated in terms of its solubility, aggregation state and stability using a variety of biophysical methods.
In circular dichroism spectroscopy the ellipticity value at 222 nm is a measure of a-helical content. 50% trifluoroethanol is a hydrophobic solvent and induces α-helical structure if the structure can be induced. All of the peptides tested can be induced to adopt α-helical structure. The peptides are random coils in benign conditions (non-denaturing). The buffer conditions were aqueous phosphate, pH 7.0.

[2] = test system: DPEP1-expressing COS1 monolayers; assay: Cancer cell binding to DPEP1-expressing COS1 monolayers; assay type: cell-based; conditions: LSALT 50 μM
Experimental: Cos-1 cells were transfected with 3 μg of human DPEP-1 cDNA. Transfected cells were reseeded 24 hours after on 12 or 24 well places. 48 hours later, 70 W melanoma cells expressing stable GFP-luciferase were harvested using Puck's EDTA and 10×10^3 cells were seeded on top of the DPEP-1 expressing Cos-1 monolayer. Cells were incubated for 4 hours at 37 C. After incubation cells were vigorously washed two times with PBS. Cells were then fixed using paraformaldehyde (4%). The number 70 W melanoma cells bound/adhered were counted under 10× magnification over 10 different field of views using an inverted fluorescence microscope (FIG. 24A). […] A unpaired 2-tailed Student's t-test was performed to compare the binding of 70 W melanoma cells to DPEP-1 transfected cells against the control of mock transfected cells. Values shown are from three independent experiments; asterisks (***) indicate P<0.001 as compared with mock transfected cells.
LSALT decreases binding of metastatic cancer cells to DPEP1-expressing COS1 monolayers in vitro. […] FIGS. 21B-C show quantification of murine melanoma B16-F10 (B) or murine breast cancer E0771.LMB (C) cells that bind to COS1 (control) or DPEP1 COS1 in the absence or presence of LSALT (50 μM).

[3] = test system: activated (TNFα and IL1β treated) HLMVEC; assay: Cancer cell binding to activated human lung microvascular endothelial cells; assay type: cell-based; conditions: 50 μM
From the text: LSALT decreases binding of metastatic cancer cells to human lung microvascular endothelial cells (HLMVEC) activated by TNFα and IL1β.

metastatic cancer cells = assay: Metastasis model in mice; assay type: in vivo; conditions: peptide 1 mM

Inducible Helical Structure (50% TFE-benign) ([1]; 222 nm): 23,925
[θ] (222 nm) 50% TFE ([1]; 222 nm, 50% TFE): −72298
% Inducible Helical Structure (Inducible/50% TFE) ([1]; 222 nm, 50% TFE is considered 100% folded): 33.1%
[θ] (222 nm) Benign (No TFE) ([1]; 222 nm, benign buffer (100 mM KCl, 50 mM Na2HPO4/NaH2PO4, pH 7.0)): −48373
Substance: H-LSALTPSPSWLKYKAL [LSALT]
secondary structure by CD ([1]; aqueous buffer / benign conditions, pH 7.0): minima at 222 nm characteristic of a α-helical conformation
binding of murine breast cancer cells (E0771.LMB) to DPEP1 transfected COS-1 cells [2]: inhibits binding of murine cancer cells to DPEP1
binding of murine melanoma cells (B16-F10) to DPEP1 transfected COS-1 cells [2]: inhibits binding of murine cancer cells to DPEP1
binding of murine melanoma cells (B16-F10) to activated HLMVEC [3]: decreased binding
binding of murine sarcoma cells (Tao-1) to activated HLMVEC [3]: decreased binding
tumor burden in livers (liver metastatic lesions) (metastatic cancer cells; animals injected with 4T1 murine breast cancer cells): reduces tumor burden in livers of animals injected with metastatic cancer cells
tumor burden in livers and lungs (metastatic cancer cells; animals injected with metastatic cancer cells): reduces tumor burden in livers and lungs
